Experimental data: ChEMBL document CHEMBL1201862, “PubChem BioAssay data set” (2004)
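Dose response: 5 concentrations. Exposure: 48 h. Format: 96-well plates. Endpoint: linear interpolation; highest concentration if not reached. At the GI50, growth is halved.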 Activity calls are given as the source filed them. Rule as the data show it: active = GI50 up to about 1.1 µM and inactive = higher.

How the values were obtained:
Assay in all cases: NCI-60 cell line screen, 48 h
CAKI-1 = system: CAKI-1
OVCAR-8 = system: OVCAR-8
NCI/ADR-RES = system: NCI/ADR-RES
SN12C = system: SN12C
HCC 2998 = system: HCC 2998
SK-OV-3 = system: SK-OV-3
SW-620 = system: SW-620
U-251 = system: U-251
SNB-75 = system: SNB-75
EKVX = system: EKVX
SF-268 = system: SF-268
A498 = system: A498
TK-10 = system: TK-10
NCI-H460 = system: NCI-H460
Hs-578T = system: Hs-578T
HT-29 = system: HT-29
SK-MEL-28 = system: SK-MEL-28
RXF 393 = system: RXF 393
NCI-H226 = system: NCI-H226

Measured: GI50

CCOC(=O)C(C)(C)Oc1ccc(Cl)cc1 [CLOFIBRATE]
inactive: CAKI-1 > 1000 µM | OVCAR-8 63.1 µM | NCI/ADR-RES 285 µM | SN12C 320 µM | HCC 2998 505 µM | SK-OV-3 986 µM | SW-620 614 µM | U-251 > 1000 µM | SNB-75 229 µM | EKVX 201 µM | SF-268 650 µM | A498 297 µM | TK-10 > 1000 µM | NCI-H460 632 µM | Hs-578T 208 µM | HT-29 159 µM | SK-MEL-28 489 µM | RXF 393 160 µM | NCI-H226 188 µM

COc1ccc(C2CCc3nc4nc(N)nc(N)c4cc3C2)cc1 (stereo not given)
inactive: CAKI-1 54.1 µM | OVCAR-8 10.2 µM | NCI/ADR-RES 39.2 µM | SN12C 6.7 µM | HCC 2998 31.8 µM | SK-OV-3 10.1 µM | SW-620 36.6 µM | U-251 9.64 µM | SNB-75 1.67 µM | EKVX 41.2 µM | SF-268 15.8 µM | A498 22.2 µM | TK-10 8.34 µM | NCI-H460 40.6 µM | Hs-578T 15.6 µM | HT-29 29.2 µM | SK-MEL-28 20.8 µM | RXF 393 16.3 µM | NCI-H226 49.4 µM

CC(C)Cn1cnc2c(NCC(C)O)nc3ccccc3c21 (stereo not given)
inactive: CAKI-1 66.4 µM | OVCAR-8 > 100 µM | NCI/ADR-RES > 100 µM | SN12C > 100 µM | HCC 2998 > 100 µM | SK-OV-3 > 100 µM | SW-620 > 100 µM | U-251 > 100 µM | SNB-75 56.1 µM | EKVX 29 µM | SF-268 > 100 µM | A498 60.8 µM | TK-10 91.4 µM | NCI-H460 > 100 µM | Hs-578T 45.7 µM | HT-29 36.6 µM | SK-MEL-28 > 100 µM | RXF 393 > 100 µM | NCI-H226 > 100 µM

CC1=NN(C(=O)c2ccncc2)C(=O)C1
inactive: CAKI-1 > 100 µM | OVCAR-8 > 100 µM | NCI/ADR-RES > 100 µM | SN12C 29.2 µM | HCC 2998 > 100 µM | SK-OV-3 > 100 µM | SW-620 > 100 µM | U-251 > 100 µM | SNB-75 > 100 µM | EKVX > 100 µM | SF-268 > 100 µM | A498 > 100 µM | TK-10 > 100 µM | NCI-H460 > 100 µM | Hs-578T > 100 µM | HT-29 > 100 µM | SK-MEL-28 > 100 µM | RXF 393 > 100 µM | NCI-H226 > 100 µM

COc1ccc(C2=C(N)c3c(OC)cccc3C2=O)cc1
inactive: CAKI-1 > 100 µM | OVCAR-8 62.2 µM | NCI/ADR-RES > 100 µM | SN12C > 100 µM | HCC 2998 > 100 µM | SK-OV-3 > 100 µM | SW-620 > 100 µM | U-251 64.9 µM | SNB-75 > 100 µM | EKVX > 100 µM | SF-268 37.8 µM | A498 > 100 µM | TK-10 > 10 µM | NCI-H460 > 100 µM | Hs-578T 61.4 µM | HT-29 > 100 µM | SK-MEL-28 > 100 µM | RXF 393 9.66 µM | NCI-H226 > 100 µM

CCN(CC)CCN1C(=O)c2c(c(-c3ccccc3)c3ccccc3c2-c2ccccc2)C1=O
inactive: CAKI-1 > 100 µM | OVCAR-8 > 100 µM | NCI/ADR-RES > 100 µM | SN12C > 100 µM | HCC 2998 > 100 µM | SK-OV-3 > 100 µM | SW-620 > 100 µM | U-251 81.7 µM | SNB-75 > 100 µM | EKVX > 100 µM | SF-268 > 100 µM | A498 > 100 µM | TK-10 > 100 µM | NCI-H460 > 100 µM | Hs-578T > 100 µM | HT-29 > 100 µM | RXF 393 25.8 µM | NCI-H226 > 100 µM

O=[N+]([O-])c1ccc(-[n+]2ccc3ccccc3c2)c([N+](=O)[O-])c1
inactive: CAKI-1 4.14 µM | OVCAR-8 2.47 µM | NCI/ADR-RES 3.28 µM | SN12C 2.69 µM | HCC 2998 13.7 µM | SK-OV-3 14.1 µM | SW-620 1.95 µM | U-251 5.68 µM | SNB-75 3.14 µM | EKVX 6.73 µM | SF-268 3.12 µM | A498 14.8 µM | TK-10 1.85 µM | NCI-H460 10.9 µM | Hs-578T 7.6 µM | HT-29 2.33 µM | SK-MEL-28 2.83 µM | RXF 393 1.92 µM | NCI-H226 16.2 µM

c1ccc(-c2nn(-c3ccccc3)[n+](-c3ccccc3)n2)cc1 [TETRAZOLIUM RED]
inactive: CAKI-1 > 100 µM | OVCAR-8 49.9 µM | NCI/ADR-RES > 100 µM | SN12C 9.59 µM | HCC 2998 1.53 µM | SK-OV-3 > 100 µM | SW-620 16.1 µM | U-251 8.97 µM | SNB-75 > 67.6 µM | EKVX 2.4 µM | SF-268 14.5 µM | A498 > 74.6 µM | TK-10 43 µM | NCI-H460 21.1 µM | Hs-578T 31.6 µM | HT-29 18.6 µM | SK-MEL-28 19.4 µM | RXF 393 11.6 µM | NCI-H226 24.5 µM

CC(=O)N1N=C(c2c(O)ccc3ccccc23)CC1C(=O)c1ccco1 (stereo not given)
inactive: CAKI-1 42.6 µM | OVCAR-8 39 µM | NCI/ADR-RES 28.2 µM | SN12C 32.4 µM | HCC 2998 50.1 µM | SK-OV-3 48.6 µM | SW-620 33.7 µM | U-251 34.3 µM | SNB-75 17.9 µM | SF-268 31.1 µM | A498 41.5 µM | TK-10 60.3 µM | NCI-H460 34.5 µM | Hs-578T 34.5 µM | HT-29 33.8 µM | SK-MEL-28 30.9 µM | RXF 393 25.1 µM | NCI-H226 77.1 µM

CC1=C/C(=N\N(C)C)C(C(O)(C(F)(F)F)C(F)(F)F)C(C)(C)C1 (stereo not given)
inactive: CAKI-1 > 100 µM | OVCAR-8 > 100 µM | NCI/ADR-RES > 100 µM | SN12C > 100 µM | HCC 2998 > 100 µM | SW-620 > 100 µM | U-251 > 100 µM | SNB-75 27.1 µM | EKVX > 100 µM | SF-268 > 100 µM | A498 > 100 µM | TK-10 > 100 µM | NCI-H460 > 100 µM | Hs-578T 72.4 µM | HT-29 > 100 µM | SK-MEL-28 > 100 µM | RXF 393 > 100 µM | NCI-H226 > 100 µM

[N-]=[N+]=NC1=C(N=[N+]=[N-])c2cccc3cccc(c23)C1=O
inactive: CAKI-1 > 100 µM | OVCAR-8 > 100 µM | NCI/ADR-RES > 100 µM | SN12C > 100 µM | HCC 2998 > 100 µM | SK-OV-3 > 100 µM | SW-620 57.7 µM | U-251 97.7 µM | SNB-75 > 100 µM | EKVX > 100 µM | SF-268 > 100 µM | A498 > 100 µM | TK-10 > 100 µM | NCI-H460 58.9 µM | Hs-578T > 100 µM | HT-29 76.7 µM | RXF 393 65.6 µM | NCI-H226 > 100 µM
